Test results reported in patent US20250302773A1, “CO[…] AND N-ACYLETH[…] USES THEREOF” (CLEARMIND MEDICINE INC., priority 2022, published 2025).

What was measured:
[1] = Body weight in the IA2BC study; format: in vivo, mice; conditions: group 4F (MEAI mid dose, 60 mg/kg), only during Day 40 of cycle 1; *p<0.05
Experimental: Body weight was recorded upon arrival, before study initiation, three times a week thereafter and at termination.
Body weight (BW) was monitored every other day in all animals of all groups.

C57BL/6 mice [2] = experiment: Mortality and gross pathology in the IA2BC study; format: in vivo
Experimental: Morbidity and mortality checks were performed daily. Animals that were sacrificed during the study were considered for the interpretation of study results as animals that died during the study. In case of mortality before the study's scheduled termination, gross pathology evaluation was performed as close as possible to the time of death. The time of death was recorded as precisely as possible.
Observations documented any irregularities, such as changes in local injection site, skin, fur, eyes, mucous membranes, respiratory, occurrence of secretions and excretions (e.g. diarrhea) and autonomic activity (e.g. lacrimation, salivation, piloerection, pupil size, unusual respiratory pattern). Changes in gait, posture, and response to handling, as the presence of bizarre behavior, tremors, convulsions, sleep, and coma were also included. All observed abnormalities, toxic signs, moribund condition, and pre-terminal deaths were recorded.
The animals were evaluated for macroscopic findings during gross pathology.

C57BL/6 mice [3] = experiment: Alcohol preference (alcohol / total fluids) in the IA2BC study; format: in vivo
Experimental: The mean alcohol preference, which was defined as the ratio between alcohol weight (g/kg/24 h) divided by the total weight of water and alcohol consumed by the animals (g/kg/24 h) was evaluated.

C57BL/6 mice [4] = experiment: Intermittent access to 20% Alcohol in two-bottle choice (IA2BC) model: alcohol consumption; format: in vivo
Experimental: The principle of the study is based on Intermittent access to 20% Alcohol in two-bottle choice (IA2BC) model in mice. The mice were provided during the whole Study with two bottles: one bottle of water, and another bottle of 20% ethanol solution, which were removed and replaced after 24 hours with another buttle of water, for additional 24 hours. In total, the mice were subjected to 20% ethanol 24 hours, three times a week, for seven-eight weeks (21-22 alcohol consumption days).
The alcohol consumption was measured after each 24 of alcohol exposure (by weighing the alcohol buttle before and after). Following four weeks of intermittent access to 20% alcohol the mice were allocated to groups according to their alcohol consumption, to achieve balanced groups. To examine the effect of treatment in reducing alcohol consumption, mice were treated with the Test Item/s or Vehicle daily during weeks 6-7/8. […]
Animal alcohol and water consumption was recorded for each cage and was done for a 24±2 hours period starting at Day 1, three times a week thereafter until the end of the Study.
Intermittent access to 20% Alcohol in two-bottle choice (IA2BC) model in mice. The mice were subjected to 20% ethanol 24 hours, three times a week, for five weeks (15 alcohol consumption days), and the alcohol consumption was measured by weight. […]

C57BL/6 mice [5] = experiment: Food consumption in the IA2BC study; format: in vivo; conditions: cycle 2, Group 7F, MEAI/PEA 0/25 mg/kg
Experimental: Animal food consumption was performed twice before first dosing (during alcohol addition, and without alcohol addition), during dosing period at each alcohol addition (six times in total) and before termination (without alcohol addition).
The Food consumption was recorded in each cage for a […] period. Determinations of food consumption (calculated value) were based on a provided diet placed in hoppers and the remaining unused diet weighed.
Food consumption was monitored per each mouse in each individual cage for 24 h during Alcohol addition time, by measuring the weight of food before and after 24 hours. The consumption of food was measured during all MEAI treatment days, in both cycles. The mean value for each group during each consumption day was calculated as fold change from baseline (i.e. food consumption measured before MEAI treatment), per each animal. The fold change values of each MEAI/PEA treated group was compared to the vehicle groups (1F/6F/7F) and statistical analysis was performed.

Row | SMILES | body weight compared to control group [1] | mortality (C57BL/6 mice [2]; high doses treated groups, after prolonged alcohol consumption) | gross pathology findings in liver, kidneys, heart and spleen (bright color and/or enlarged) (C57BL/6 mice [2]; observed in all groups including vehicle treated) | reduction of alcohol preference compared to control, significance (C57BL/6 mice [3]; cycle 1, 100 mg/kg MEAI) | mean alcohol preference compared to control groups (C57BL/6 mice [3]; cycle 1, MEAI 20-100 mg/kg) | reducing alcohol consumption of the treated animals (C57BL/6 mice [4]; MEAI 20-100 mg/kg PO daily, weeks 6-7/8, treated vs control) | alcohol consumption during treatment compared to consumption before treatment (C57BL/6 mice [4]; cycle 1, MEAI at a dose of 40 mg/kg and at higher doses PO, mean of six alcohol days, ** p<0.01, *** p<0.001) | reduction of food consumption compared to own baseline (C57BL/6 mice [5]) [%]
1 | COc1ccc2c(c1)CC(N)C2 (centres unmarked) [MEAI, 5-methoxy-2-aminoindan] | significantly lower | four | most likely related to the alcohol consumption and not to the MEAI treatment | statistically significant | reduced in a dose dependent manner | significant dose dependent effect | significantly reduced | 
2 | CCCCCCCCCCCCCCCC(=O)NCCO [PEA, N-(2-hydroxyethyl) hexadecanamide] |  |  |  |  |  |  |  | 22
